Assay results taken from patent US20230391817A1, “5ALPHA-HYDROXY-6BETA-[2-(1-H-IMIDAZOL-4-YL)-ETHYLAMINO]-CHOLESTAN-3BETA-OL ANALOGUES AND PHARMACEUTICAL COMPOSITIONS COMPRISING SAME FOR USE IN THE TREATMENT OF CANCER” (priority 2020, published 2023).
Where two headings read alike, the source gives them in different places.

Legend:
MCF-7 breast tumor cells = experiment: cells; format: cell-based; settings: for cell viability in MTT compared with the control: 1, 2.5 or 5 μM, 48 h; for viability at 5 µM: Homo sapiens, MCF7, 48 h, read-out: percentage of cell viability relative to the control group
Experimental: A cell viability test was performed on MCF-7 (Michigan Cancer Foundation-7) breast tumor cells […] (ER(+) cells).
The MCF-7 cells are in a cell culture medium identical to that of Example 5 and are seeded in 12-well plates at 50 000 cells per well. 24 hours after seeding, the cells are treated with vehicle solvate comprising water and ethanol with a 1% o ratio of ethanol, 3β-fluoro-5α-hydroxy-6β-[2-(1H-imidazol-4-yl)ethylamino]cholestane, and 5α-hydroxy-6β-[2-(1H-imidazol-4-yl)ethylamino]cholestan-3β-ol at 1, 2.5 or 5 μM. The cells are observed under an inverted microscope and photographed via the microscope camera at 24 h and 48 h. The morphological changes in the cells at 1 μM are very small. […] The effects are more marked at 2.5 μM and 5 μM with an increase in the number of dead cells. […] After 24 h of treatment with 3β-fluoro-5α-hydroxy-6β-[2-(1H-imidazol-4-yl)ethylamino]-cholestane at 5 μM, 99% of the observed cells are supernatant, reflecting cell death, and 1% of the cells are adherent and show white vesicles. […] The cytostatic effect is illustrated by an inhibition of cell proliferation.
The cell viability is measured by labeling with MTT at 48 hours. This test is based on the use of the tetrazolium salt MTT (3-(4,5-dimethylthiazol-2-yl)-2,5-diphenyltetrazolium bromide). Tetrazolium is reduced by mitochondrial succinate dehydrogenase in active living cells to formazan, a purple colored precipitate. The amount of precipitate formed is proportional to the amount of living cells but also to the metabolic activity of each cell. Thus, a simple determination of the optical density at 540 nm by spectroscopy makes it possible to determine the relative amount of living and metabolically active cells. After 48 hours, the medium is aspirated, and the cells are washed with phosphate-buffered saline (PBS) and then incubated with MTT (0.5 mg/ml in PBS) for about 2 hours. The MTT solution is aspirated and the purple crystals are dissolved in dimethyl sulfoxide (DMSO). The OD (optical density) is measured at 540 nm.
The control group is prepared in a similar manner to the groups studied without the addition of the molecules studied in the present text. […] For a concentration of 5 μM, the viability is close to 0%. This reflects the ability of the compound of formula (I) to kill mammary tumor cells.

[1] = system: murine 4T1 mammary tumor cells; experiment: Cell viability of 4T1 cells, MTT; format: cell-based; settings: for IC50: Mus musculus, 4T1, MTT, 48 h
Experimental: Cell viability tests were performed on murine 4T1 mammary tumor cells characterized as triple negative (HER2-, ER-, PR-).
For this experiment, a cell culture medium was prepared. The culture medium consisted of Dulbecco's Modified Eagle Medium (DMEM, sold by Westburg as LO BE12-604F), comprising 4.5 g/L glucose with L-glutamine, to which 10% fetal calf serum (FCS) and 50 U/ml penicillin/streptomycin are added. The 4T1 cells were introduced into this culture medium.
96-well plates were seeded with 2000 4T1 cells per well. After 72 hours (h) of culture under normal condition, i.e. in an incubator at 37° C. at […], the 4T1 cells were treated for 48 h with DX101, DX103, DX111, DX123, DX125, DX127 and DX129 at 100 nM, 1 μM, 2.5 μM and 10 μM. A control condition (CTL) is also performed in parallel using the previously described protocol without treatment with the molecules DX101, DX103, DX111, DX123, DX125, DX127 or DX129.
The cell viability is measured by three different methods. For the first method, MTT labeling is performed at 48 hours. This test is based on the use of the tetrazolium salt MTT (3-(4,5-dimethylthiazol-2-yl)-2,5-diphenyltetrazolium bromide). Tetrazolium is reduced by mitochondrial succinate dehydrogenase in active live cells to formazan, a purple colored precipitate. The amount of precipitate formed is proportional to the amount of live cells but also to the metabolic activity of each cell. Thus, a simple determination of the optical density at 550 nm by spectroscopy makes it possible to determine the relative amount of live and metabolically active cells. After 48 hours, the medium is aspirated, and the cells are incubated with MTT (0.5 mg/ml in culture medium) for about 3 hours. The MTT solution is aspirated and the purple crystals are dissolved in dimethyl sulfoxide (DMSO). The OD (optical density) is measured at 550 nm. The percentage of viability is then determined in each well against the CTL and the IC50 (concentration at which 50% of cells remain alive) is determined for each molecule with the Prism software using a nonlinear regression curve (log(inhibitor) vs. Response).

4T1 tumors = experiment: Tumor growth and survival in vivo, subcutaneous 4T1 tumors in Balb/c mice; settings: 40 mg/kg, gavage, daily; for Inhibition of tumor growth at 7 days: Balb/c mice with 4T1 tumors
Experimental: All the animal procedures were conducted according to our institutional guidelines after approval by the ethics committee. The 4T1 cells were cultured as previously, dissociated in trypsin, washed twice with cold PBS and resuspended in 1.5 million/ml PBS. 4T1 tumors were obtained by subcutaneous transplantation of 0.150 million cells in 100 μL into the flank of female Balb/c mice (9 weeks old, […]). When the tumors reached a volume of 50-100 mm^3, the mice were gavaged with 40 mg/kg of DX101 or 40 mg/kg of DX111 or the control vehicle (water). Treatment was performed daily until the end of the experiment (tumor volume >1000 mm^3). Tumor volume was determined daily using a caliper and calculated using the formula: ½×(Length*Width^2). The percentage of tumor growth inhibition was determined using the following formula: 100×(1-(Tumor volume, day 7/tumor volume day 0)DX111)/(1-(Tumor volume, day 7/tumor volume day 0)vehicle).
The Kaplan-Meier method was used to compare animal survival.

[2] = log of IC50 in μM, read-out: Mean LogIC50 (±SEM) (converted)

CC(C)CCC[C@@H](C)[C@H]1CC[C@H]2[C@@H]3C[C@@H](NCCc4c[nH]cn4)[C@@]4(O)C[C@@H](O)CC[C@]4(C)[C@H]3CC[C@]12C [DX101, 5α-hydroxy-6β-[2-(1H-imidazol-4-yl)ethylamino]cholestan-3β-ol, reference compound]
cell viability in MTT compared with the control (MCF-7 breast tumor cells): dose-dependent decrease | viability at 5 µM (MCF-7 breast tumor cells): ~0% | IC50 [1, 2]: 4.37 µM | IC50 ([1]; read-out: IC50): 4.4 µM | median survival (4T1 tumors): 9 days | survival after 15 days of treatment (4T1 tumors): 0% | Inhibition of tumor growth at 7 days (4T1 tumors): 48%

CC(C)CCC[C@@H](C)[C@H]1CC[C@H]2[C@@H]3C[C@@H](NCCc4c[nH]cn4)[C@@]4(O)C[C@@H](F)CC[C@]4(C)[C@H]3CC[C@]12C [DX111, 3β-fluoro-5α-hydroxy-6β-[2-(1H-imidazol-4-yl)ethylamino]cholestane]
cell viability in MTT compared with the control (MCF-7 breast tumor cells): dose-dependent decrease | viability at 5 µM (MCF-7 breast tumor cells): ~0% | cytotoxic activity compared with DX101 ([1]; 4T1, Tables 1a, 1b and 1c (MTT, LDH, Green Cytotoxicity Assay)): higher | IC50 [1, 2]: 1.7 µM | IC50 ([1]; read-out: IC50): 1.69 µM | median survival (4T1 tumors): 10 days | survival after 15 days of treatment (4T1 tumors): 25% | Inhibition of tumor growth at 7 days (4T1 tumors): 67% | effect on tumor growth reduction compared with DX101 (4T1 tumors; p<0.01): superior effect
